Reference: patent publication US12558354B2, “Tumor necrosis factor alpha (TNF-alpha) small molecule inhibitor” (AJOU UNIVERSITY INDUSTRY-ACADEMIC COOPERATION FOUNDATION, priority 2019, dated 2026)
pIC50: −log10 of the molar value. “Also recorded” adds a separate entry of the source.

Experiments:
TNF-α/TNFR1 interface = TNF-α/TNFR1 interface (Homo sapiens, UniProt P01375); conditions: target TNF-α/TNFR1 interface, literature; cited from earlier work
[1] = target: T1, recombinant human TNF-α (rhTNF-α) (Homo sapiens, UniProt P01375); experiment: TNF-α-mediated hIL-8 secretion in HDFs (ELISA); format: cell-based; conditions: for inhibition of TNF-induced hIL-8, TIM1 derivatives compared with TIM1: HDFs, 1, 10 and 50 μM, rhTNF-α 1 ng/ml
T1 construct: purchased Miltenyi Biotec
Experimental: (§1) HDFs were seeded at a density of 10^4/well in a 96-well plate (BD Biosciences) and grown overnight. The cells were treated for 24 hours with a 1-hour-pre-incubated mixture of rhTNF-α and test compounds. IL-8 secretion was assessed by a human IL-8 uncoated ELISA kit (eBioscience, Inc., San Diego, CA, USA), and IL-6 secretion level was assessed by a human IL-6 ELISA MAX™ Deluxe kit (BioLegend, San Diego, CA, USA). The microtiter plates were then analyzed at an appropriate wavelength using a microplate spectrophotometer system (Molecular Devices, Silicon Valley, California).

[2] = tested on: human dermal fibroblasts (HDFs); experiment: Cell viability (MTT) assay in human dermal fibroblasts; format: cell-based; conditions: HDFs, 24 hours
Experimental: FIG. 8A is a graph showing the effects of TIM1 and a solvent thereof, DMSO, on the viability of human dermal fibroblasts, in which cells (10^4/well) were treated with DMSO at 3 different concentrations (0.5, 1, and 2%) and TIM1 at 8 different concentrations (1, 3.125, 6.25, 12.5, 25, 50, 100, and 200 μM) for 24 hours, and the cell viability was monitored by an MTT assay. FIG. 8B is a graph showing the effect of TIM1 on the viability of a mouse fibrosarcoma cell line [L929 (1.5×10^4/well)] under the same conditions as in FIG. 8A. All experiments were independently performed 4 times, and mean±SEM of the independent experiments was calculated using a two-tailed paired Student's t-test (*P<0.05).
In order to measure cell viability, a colorimetric […] (MTT) assay (Sigma-Aldrich Co.) was performed. HDFs were seeded at a density of 10^4/well in 96-well plates (BD Biosciences, San Jose, CA, USA), grown overnight, and then treated with a test compound at various concentrations for 24 hours. The next day, the medium was replaced with a medium (100 μl/well) containing a 10% MTT solution, followed by incubated at 37° C. for 3 hours. This solution was replaced with DMSO (100 μl/well), and the plates were incubated at room temperature for 30 minutes. Thereafter, the plates were read at a wavelength of 540 nm using a microplate spectrophotometer system (Molecular Devices, Silicon Valley, California).

[3] = target: T2, recombinant mouse TNF-α (rmTNF-α) (Mus musculus, UniProt P06804); experiment: Cell death attenuation assay, act-D-sensitized L929 cells with rmTNF-α; format: cell-based; conditions: act-D-sensitized L929, rmTNF-α 1 ng/ml, 1-100 μM
T2 construct: purchased Miltenyi Biotec
T2 sequence (P06804 80-235 limits assumed): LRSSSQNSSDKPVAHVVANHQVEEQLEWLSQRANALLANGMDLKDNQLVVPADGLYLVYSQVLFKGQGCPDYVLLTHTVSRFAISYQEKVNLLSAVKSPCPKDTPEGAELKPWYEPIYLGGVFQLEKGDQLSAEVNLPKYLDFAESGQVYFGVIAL
Experimental: HDFs (10^4/well) and L929 cell lines (1.5×10^4/well) were seeded in 96-well plates and grown overnight under appropriate conditions. The next day, HDFs and L929 cells were pretreated with 1 μg/ml act-D and 0.1 μg/ml act-D, respectively, followed by incubated for 30 minutes. Thereafter, a 1-hour-preincubated mixture of 10 ng/ml rhTNFα with test compounds or 1 ng/ml rmTNFα with test compounds, was applied to HDFs and L929 cells, respectively. The cells were incubated for 24 hours post-treatment, and survival was measured by the MTT assay. Cell viability was calculated with reference to the no-treatment control group. The obtained values were normalized with respect to the act-D treatment group and then used to calculate death attenuation (%) rate using the following equation: […]

[4] = target: T1, recombinant human TNF-α (rhTNF-α); experiment: TNF-α-mediated hIL-6 secretion in HDFs (ELISA); format: cell-based
Experimental: as §1

[5] = tested on: collagen-induced polyarthritis (CIA); experiment: Mouse model of collagen-induced polyarthritis (CIA), oral TIM1c; format: in vivo
From the text: FIG. 6B is a graph showing body weight, FIG. 6C is a graph showing a squeaking number (the value 0 indicating no sign of pain), FIG. 6D is a graph showing an increase in paw volume, FIG. 6E is a graph showing an arthritis index, that is, the severity of mouse limb arthritis. The number of arthritic limbs was quantified, and each limb was assigned a severity score of 0-4, the data representing the number of arthritic limbs per arthritic mouse and the mean severity score of arthritis in each limb, black arrows representing the start date of drug administration, NOR, n=4; CIA, n=4; TIM1c_2 mg/ml, n=4; TIM1c_20 mg/ml, n=5, values being represented as means±SEM. #p<0.05, ##p<0.01, ###p<0.001 vs. NOR group and p<0.05, **p<0.01, ***p<0.001 vs. CIA group (two-way ANOVA followed by Bonferroni correction).
Male DBA/1J mice (20-23 g) were purchased from Central Lab. Animal Inc. (Seoul, Korea). Animals were housed in a limited-access rodent facility with a maximum of 4 animals per polycarbonate cage, with free access to pelleted food and water. The temperature was maintained at 22-24° C. with a 12/12-hour light/dark cycle. Animals were acclimatized for at least 1 week prior to starting the experiment. The number of animals used per experiment or test and the potential suffering were minimized. All methods were approved by the Animal Care and Use Committee of Kyung-Hee University, Korea. All procedures were executed in accordance to the Guide for the Care and Use of Laboratory Animals by the Korea National Institute of Health.
Male DBA/1J mice (6-week-old) were subcutaneously injected with 50 μl of an emulsion containing 100 μg of chicken collagen type II (Sigma-Aldrich Co., St. Louis, MO, USA) dissolved in 25 μl of acetic acid and 25 μl of a complete Freund's adjuvant (Sigma-Aldrich Co.) at the base of the tail thereof, and the day of the first immunization was defined as day 0. On Day 14, the mice were injected with a booster of 50 μl of the emulsion having the same composition as the first immunization, except that an incomplete Freund's adjuvant was used. All mice were randomly divided into 4 experimental groups: non-treated normal group (NOR, n=4), collagen-injected and vehicle-treated arthritis control group (CIA, n=4), 2 mg/kg TIM1c-treated arthritis group (TIM1c 2 mg/ml, n=4), and 20 mg/kg TIM1c-treated arthritis group (TIM1c 20 mg/ml, n=5). The treatment groups were orally fed 2 or 20 mg/kg of TIM1c every 2 days from day 15 to day 60 after the first immunization.
In order to evaluate the progression of arthritis in CIA mice, four parameters (body weight, paw volume increase, squeaking score, and arthritis score) were measured after the first immunization with collagen and complete Freund's adjuvant. The body weights of the mice were measured using a digital balance (Mettler-Toledo Inc., Columbus, OH, USA). In order to assess nociception and hyperalgesia, ankle pain was evaluated on a scale measuring squeaking. Squeaking included any vocalization evoked by ankle flexion and extension. The flexion and extension procedures were repeated 10 times every 5 seconds, and the mouse was rated 0 (no vocalization) or 1 (vocalization) for each hindlimb thereof. The total number of vocalizations detected by the observer was counted as the number of squeaks. Paw swelling was measured by volume displacement of an electrolyte solution using a water-displacement plethysmometer (Ugo-Basil Biological Research Apparatus Co., Comerio-Varese, Italy), as previously described (Bang J. S. et al. (2009) Arthritis Res. Ther. 11(2):R49). The hindlimbs were immersed to the line of the hairy skin, and the volumes thereof were read on a digital display. The increase in paw volume was represented compared to day 0, which was defined as zero. […]

[6] = HDFs, 1, 10, 50 and 100 μM, 24 hours

T1 sequence (P01375 77-233 limits assumed): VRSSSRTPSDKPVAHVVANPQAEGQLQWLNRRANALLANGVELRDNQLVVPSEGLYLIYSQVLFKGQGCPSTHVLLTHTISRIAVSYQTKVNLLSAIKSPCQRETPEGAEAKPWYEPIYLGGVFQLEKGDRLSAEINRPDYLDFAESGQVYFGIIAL
TNF-α/TNFR1 interface, sequence (P01375 77-233 limits assumed, species assumed): as the sequence (P01375 77-233 limits assumed) above

Molecule: C=C1C(=O)O[C@@H]2C[C@@H](C)[C@]34C[C@]5(C(=O)O[C@H]6C[C@@]7(C)C(=C[C@H]65)[C@H](C)CC[C@@H]7O)[C@H](C(C)=C3C[C@@H]12)[C@@H]4OC(C)=O [Japonicone A]
- pIC50 (TNF-α/TNFR1 interface): ~5.00

Molecule: Cc1cc2occ(CN(C)CCN(C)Cc3cn(-c4cccc(C(F)(F)F)c4)c4ccccc34)c(=O)c2cc1C [SPD304, reference compound]
- secretion of hIL-8 at 10 μM ([1]; HDFs, 10 μM): increase the secretion of cytokines
- secretion of hIL-8 at 50 μM ([1]; HDFs, 50 μM): completely inhibits
- inhibition of TNF-α-mediated hIL-8 secretion [1, 6]: weak at 10 μM but stronger at 1 μM
- cytotoxicity (cell viability, MTT assay) [2]: showed cytotoxicity; also recorded: severe cytotoxicity at high concentrations; also recorded: strong cytotoxicity at concentrations exceeding 1 μM; also recorded: significant cytotoxic effects were exhibited at concentrations of 10, 50 or 100 μM
- inhibition of rmTNF-α-mediated proapoptotic pathway / cell death [3]: did not reduce the death of these cells at concentrations other than 1 μM
- secretion of hIL-6 at 10 μM ([4]; HDFs, 10 μM): increase the secretion of cytokines
- secretion of hIL-6 at 50 μM ([4]; HDFs, 50 μM): completely inhibited
- inhibition of TNF-α-mediated hIL-6 secretion [4, 6]: weak at 10 μM but stronger at 1 μM

Molecule: CCCn1c(C)cc(-c2csc(NC(=O)c3nn(CC)c(=O)c4ccccc34)n2)c1C [TIM1-7, N-[4-(2,5-dimethyl-1-propylpyrrol-3-yl)-1,3-thiazol-2-yl]-3-ethyl-4-oxophthalazine-1-carboxamide]
- inhibition of TNF-induced hIL-8, TIM1 derivatives compared with TIM1 ([1]; 24 hours): concentration-dependent inhibition of TNF-induced hIL-8 greater than that of TIM1
- cytotoxicity (cell viability, MTT assay) [2]: negligible cytotoxicity

Molecule: Cc1csc(N(C(=O)c2nn(C)c(=O)c3ccccc23)c2ccccc2)n1 [TIM1-10, 3-methyl-N-(4-methy1-1,3-thiazol-2-yl)-4-oxo-N-phenylphthalazine-1-carboxamide]
- inhibition of TNF-induced hIL-8, TIM1 derivatives compared with TIM1 ([1]; 24 hours): concentration-dependent inhibition of TNF-induced hIL-8 greater than that of TIM1
- cytotoxicity (cell viability, MTT assay) [2]: negligible cytotoxicity

Molecule: CCCCCCn1nc(C(=O)Nc2nc3ccccc3s2)c2ccccc2c1=O [TIM1-11, N-(1,3-benzothiazol-2-yl)-3-hexyl-4-oxophthalazine-1-carboxamide]
- inhibition of TNF-induced hIL-8, TIM1 derivatives compared with TIM1 ([1]; 24 hours): concentration-dependent inhibition of TNF-induced hIL-8 greater than that of TIM1
- cytotoxicity (cell viability, MTT assay) [2]: negligible cytotoxicity

Molecule: Cc1cc(-c2csc(NC(=O)c3nn(C)c(=O)c4ccccc34)n2)c(C)n1CCc1ccccc1 [TIM1-14, N-{4-[2,5-dimethyl-1-(2-phenylethyl)pyrrol-3-yl]-1,3-thiazol-2-yl}-3-methyl-4-oxophthalazine-1-carboxamide]
- inhibition of TNF-induced hIL-8, TIM1 derivatives compared with TIM1 ([1]; 24 hours): concentration-dependent inhibition of TNF-induced hIL-8 greater than that of TIM1
- cytotoxicity (cell viability, MTT assay) [2]: negligible cytotoxicity

Molecule: CCCNc1nc(-c2cc(C)n(NC(=O)c3nn(C)c(=O)c4ccccc34)c2C)cs1.Cl [TIM1c, N-{2,5-dimethyl-3-[2-(propylamino)-1,3-thiazol-4-yl]pyrrol-l-yl}-3-methyl-4-oxophthalazine-1-carboxamide hydrochloride]
- inhibition of TNF-induced hIL-8, TIM1 derivatives compared with TIM1 ([1]; 24 hours, hydrochloride): concentration-dependent inhibition of TNF-induced hIL-8 greater than that of TIM1; also recorded: maximally inhibited
- disease severity at low dose ([5]; 2 mg/kg/2 days): slightly ameliorate disease severity
- induction of RA at high dose ([5]; 20 mg/kg/2 days): significantly decreased to such an extent that the limbs of the animals were almost identical to those of the normal group
- body weight ([5]; 2 or 20 mg/kg every 2 days): weight gain
- paw volume ([5]; 2 or 20 mg/kg every 2 days): paw volume decrease
- RA symptoms versus CIA mice ([5]; 2 or 20 mg/kg every 2 days, day 15 to day 60): Dose-dependent amelioration
- number of squeaks ([5]; CIA mice): inhibited
- arthritis index (clinical score) ([5]; treatment group versus CIA): significantly decreased
- cytotoxicity (cell viability, MTT assay) [2]: negligible cytotoxicity

Molecule: Cc1cc(-c2csc(N(C)C)n2)c(C)n1NC(=O)c1nn(C)c(=O)c2ccccc12 [TIM1d, N-{3-[2-(dimethylamino)-1,3-thiazol-4-yl]-2,5-dimethylpyrrol-1-yl}-3-methyl-4-oxophthalazine-1-carboxamide]
- inhibition of TNF-induced hIL-8, TIM1 derivatives compared with TIM1 ([1]; 24 hours): concentration-dependent inhibition of TNF-induced hIL-8 greater than that of TIM1
- cytotoxicity (cell viability, MTT assay) [2]: negligible cytotoxicity

Molecule: Erythrosine B
- pIC50 (TNF-α/TNFR1 interface): 5.30
